How the values were obtained:
[1] = system: HCT-116; assay: NCI-60 anticancer screening (SRB); format: cell-based; conditions: Homo sapiens; HCT-116, colon cancer; one dose 10 μM; read-out: Growth Inhibition Percentage (GI %)
[2] = system: K-562; assay: NCI-60 anticancer screening (SRB); format: cell-based; conditions: Homo sapiens, K562; K-562, leukemia; one dose 10 μM; read-out: Growth Inhibition Percentage (GI %)
[3] = system: DU-145; assay: NCI-60 anticancer screening (SRB); format: cell-based; conditions: Homo sapiens; DU-145, prostate cancer; one dose 10 μM; read-out: Growth Inhibition Percentage (GI %)
[4] = system: MDA-MB-435; assay: NCI-60 anticancer screening (SRB); format: cell-based; conditions: Homo sapiens; MDA-MB-435, melanoma; one dose 10 μM; read-out: Growth Inhibition Percentage (GI %)
[5] = system: NCI/ADR-RES; assay: NCI-60 anticancer screening (SRB); format: cell-based; conditions: Homo sapiens, ovarian cancer, one dose 10 μM, read-out: Growth Inhibition Percentage (GI %)
[6] = system: HOP-62; assay: NCI-60 anticancer screening (SRB); format: cell-based; conditions: Homo sapiens; HOP-62, NSC lung cancer; one dose 10 μM; read-out: Growth Inhibition Percentage (GI %)
[7] = system: UO-31; assay: NCI-60 anticancer screening (SRB); format: cell-based; conditions: Homo sapiens; UO-31, renal cancer; one dose 10 μM; read-out: Growth Inhibition Percentage (GI %)
[8] = system: M14; assay: NCI-60 anticancer screening (SRB); format: cell-based; conditions: Homo sapiens; M14, melanoma; one dose 10 μM; read-out: Growth Inhibition Percentage (GI %)
[9] = system: OVCAR-8; assay: NCI-60 anticancer screening (SRB); format: cell-based; conditions: Homo sapiens; OVCAR-8, ovarian cancer; one dose 10 μM; read-out: Growth Inhibition Percentage (GI %)
[10] = system: SF-295; assay: NCI-60 anticancer screening (SRB); format: cell-based; conditions: Homo sapiens; SF-295, CNS cancer; one dose 10 μM; read-out: Growth Inhibition Percentage (GI %)
[11] = system: HS 578T; assay: NCI-60 anticancer screening (SRB); format: cell-based; conditions: Homo sapiens; HS 578T, breast cancer; one dose 10 μM; read-out: Growth Inhibition Percentage (GI %)
[12] = system: NCI 60 cancer cell lines; assay: NCI-60 anticancer screening (SRB), whole panel; format: cell-based, human; conditions: mean across the NCI-60 panel; one dose 10 μM
[13] = system: MOLT-4; assay: NCI-60 anticancer screening (SRB); format: cell-based; conditions: Homo sapiens; MOLT-4, leukemia; one dose 10 μM; read-out: Growth Inhibition Percentage (GI %)
[14] = system: SF-268; assay: NCI-60 anticancer screening (SRB); format: cell-based; conditions: Homo sapiens; SF-268, CNS cancer; one dose 10 μM; read-out: Growth Inhibition Percentage (GI %)
[15] = system: UACC-257; assay: NCI-60 anticancer screening (SRB); format: cell-based; conditions: Homo sapiens; UACC-257, melanoma; one dose 10 μM; read-out: Growth Inhibition Percentage (GI %)
[16] = system: UACC-62; assay: NCI-60 anticancer screening (SRB); format: cell-based; conditions: Homo sapiens; UACC-62, melanoma; one dose 10 μM; read-out: Growth Inhibition Percentage (GI %)
[17] = system: IGROV1; assay: NCI-60 anticancer screening (SRB); format: cell-based; conditions: Homo sapiens, IGROV-1; IGROV1, ovarian cancer; one dose 10 μM; read-out: Growth Inhibition Percentage (GI %)
[18] = system: HT29; assay: NCI-60 anticancer screening (SRB); format: cell-based; conditions: Homo sapiens, HT-29; HT29, colon cancer; one dose 10 μM; read-out: Growth Inhibition Percentage (GI %)
[19] = system: COLO 205; assay: NCI-60 anticancer screening (SRB); format: cell-based; conditions: Homo sapiens; COLO 205, colon cancer; one dose 10 μM; read-out: Growth Inhibition Percentage (GI %)
[20] = system: HCT-15; assay: NCI-60 anticancer screening (SRB); format: cell-based; conditions: Homo sapiens; HCT-15, colon cancer; one dose 10 μM; read-out: Growth Inhibition Percentage (GI %)
[21] = system: SF-539; assay: NCI-60 anticancer screening (SRB); format: cell-based; conditions: Homo sapiens; SF-539, CNS cancer; one dose 10 μM; read-out: Growth Inhibition Percentage (GI %)
[22] = system: NCI-H460; assay: NCI-60 anticancer screening (SRB); format: cell-based; conditions: Homo sapiens; NCI-H460, NSC lung cancer; one dose 10 μM; read-out: Growth Inhibition Percentage (GI %)
[23] = system: RXF 393; assay: NCI-60 anticancer screening (SRB); format: cell-based; conditions: Homo sapiens; RXF 393, renal cancer; one dose 10 μM; read-out: Growth Inhibition Percentage (GI %)
[24] = system: PC-3; assay: NCI-60 anticancer screening (SRB); format: cell-based; conditions: Homo sapiens; PC-3, prostate cancer; one dose 10 μM; read-out: Growth Inhibition Percentage (GI %)
[25] = system: MCF7; assay: NCI-60 anticancer screening (SRB); format: cell-based; conditions: Homo sapiens; MCF7, breast cancer; one dose 10 μM; read-out: Growth Inhibition Percentage (GI %)
[26] = system: HL-60(TB); assay: NCI-60 anticancer screening (SRB); format: cell-based; conditions: Homo sapiens, leukemia, one dose 10 μM, read-out: Growth Inhibition Percentage (GI %)
[27] = system: NCI-H522; assay: NCI-60 anticancer screening (SRB); format: cell-based; conditions: Homo sapiens; NCI-H522, NSC lung cancer; one dose 10 μM; read-out: Growth Inhibition Percentage (GI %)

Row | Compound | inhibition at 10 µM [1] | inhibition at 10 µM [2] | inhibition at 10 µM [3] | inhibition at 10 µM [4] | inhibition at 10 µM [5] | inhibition at 10 µM [6] | inhibition at 10 µM [7] | inhibition at 10 µM [8] | inhibition at 10 µM [9] | inhibition at 10 µM [10] | inhibition at 10 µM [11] | GI % mean [12] | inhibition at 10 µM [13] | inhibition at 10 µM [14] | inhibition at 10 µM [15] | inhibition at 10 µM [16] | inhibition at 10 µM [17] | inhibition at 10 µM [18] | inhibition at 10 µM [19] | inhibition at 10 µM [20] | other results
1 | CCOC(=O)C1=C(N)N(c2ccccc2)C2=C(C(=O)CC(C)(C)C2)C1c1ccccn1 (racemic) [12a, (±)-Ethyl 2-amino-7,7-dimethyl-5-oxo-1-phenyl-4-(pyridin-2-yl)-1,4,5,6,7,8-hexahydroquinoline-3-carboxylate] | < 10% | < 10% | < 10% | < 10% | < 10% | < 10% | < 10% | < 10% | < 10% | < 10% | < 10% | - ((-) = GI % mean less than 10) | < 10% | < 10% | < 10% | < 10% | < 10% | < 10% | < 10% | < 10% | melting point: 158 to 160 °C; inhibition at 10 µM [21]: < 10%; inhibition at 10 µM [22]: < 10%; inhibition at 10 µM [23]: < 10%; inhibition at 10 µM [24]: < 10%; inhibition at 10 µM [25]: < 10%; inhibition at 10 µM [26]: < 10%; inhibition at 10 µM [27]: 11%
2 | CCOC(=O)C1=C(N)N(c2ccc(C)cc2)C2=C(C(=O)CC(C)(C)C2)C1c1ccccn1 (racemic) [12b, (±)-Ethyl 2-amino-7,7-dimethyl-1–(4-methylphenyl)-5-oxo-1-phenyl-4-(pyrdin-2-yl)-1,4,5,6,7,8-hexahydroquinoline-3-carboxylate] | < 10% | < 10% | < 10% | < 10% | < 10% | < 10% | 23% | < 10% | < 10% | < 10% | < 10% | - ((-) = GI % mean less than 10) | < 10% | 14% | < 10% | 26% | < 10% | < 10% | < 10% | < 10% | melting point: 196 to 198 °C; inhibition at 10 µM [21]: < 10%; inhibition at 10 µM [22]: < 10%; inhibition at 10 µM [23]: < 10%; inhibition at 10 µM [24]: < 10%; inhibition at 10 µM [25]: 12%; inhibition at 10 µM [26]: < 10%; inhibition at 10 µM [27]: < 10%
3 | CCOC(=O)C1=C(N)N(c2ccccc2)C2=C(C(=O)CC(C)(C)C2)C1c1ccc([N+](=O)[O-])cc1 (racemic) [8i, (±)-Ethyl 2-amino-4–(4-nitrophenyl)-7,7-dimethyl-5-oxo-1-phenyl-1,4,5,6,7,8-hexahydroquinoline-3-carboxylate] | 16% | 16% | < 10% | < 10% | < 10% | < 10% | < 10% | < 10% | < 10% | < 10% | < 10% | - ((-) = GI % mean less than 10) | 22% | < 10% | < 10% | 33% | < 10% | < 10% | < 10% | 14% | melting point: 164 to 166 °C; inhibition at 10 µM [21]: < 10%; inhibition at 10 µM [22]: < 10%; inhibition at 10 µM [23]: < 10%; inhibition at 10 µM [24]: 32%; inhibition at 10 µM [25]: 16%; inhibition at 10 µM [26]: < 10%; inhibition at 10 µM [27]: 21%
4 | CCOC(=O)C1=C(N)N(c2ccc(Cl)cc2)C2=C(C(=O)CC(C)(C)C2)C1c1cccnc1 (racemic) [12f, (±)-Ethyl 2-amino-1–(4-chlorophenyl)-7,7-dimethyl-5-oxo-4-(pyridin-3-yl)-1,4,5,6,7,8-hexahydroquinoline-3-carboxylate] | < 10% | < 10% | < 10% | < 10% | 11% | < 10% | 21% | < 10% | < 10% | < 10% | 16% | - ((-) = GI % mean less than 10) | < 10% | < 10% | < 10% | < 10% | < 10% | < 10% | < 10% | < 10% | melting point: 261 to 263 °C; inhibition at 10 µM [21]: 12%; inhibition at 10 µM [22]: < 10%; inhibition at 10 µM [23]: < 10%; inhibition at 10 µM [24]: < 10%; inhibition at 10 µM [25]: < 10%; inhibition at 10 µM [26]: < 10%; inhibition at 10 µM [27]: < 10%
5 | CCOC(=O)C1=C(N)N(c2ccc(Cl)cc2)C2=C(C(=O)CC(C)(C)C2)C1c1ccc(OC)cc1 (racemic) [8h, (±)-Ethyl 2-amino-1–(4-chlorophenyl)-4–(4-methoxyphenyl)-7,7-dimethyl-5-oxo-1,4,5,6,7,8-hexahydroquinoline-3-carboxylate] | < 10% | < 10% | < 10% | < 10% | < 10% | < 10% | < 10% | < 10% | < 10% | < 10% | < 10% | - ((-) = GI % mean less than 10) | < 10% | < 10% | < 10% | < 10% | < 10% | < 10% | < 10% | < 10% | melting point: 255 to 257 °C; inhibition at 10 µM [21]: < 10%; inhibition at 10 µM [22]: < 10%; inhibition at 10 µM [23]: < 10%; inhibition at 10 µM [24]: < 10%; inhibition at 10 µM [25]: < 10%; inhibition at 10 µM [26]: < 10%; inhibition at 10 µM [27]: < 10%

Reference: PMC10408569, “Recruitment of hexahydroquinoline as anticancer scaffold targeting inhibition of wild and mutants EGFR (EGFR^WT, EGFR^T790M, and EGFR^L858R)” (Journal of Enzyme Inhibition and Medicinal Chemistry, 2023)
